According to patent US20250221936A1, “ENGINEERED HEMICHANNELS, ENGINEERED VESICLES, AND USES THEREOF” (VIRGINIA TECH INTELLECTUAL PROPERTIES, INC., priority 2018, published 2025):
“Also recorded” adds a separate entry of the source.

Experiments:
silicon wafer implants = settings: 24 hours; cited from earlier work
[1] = molecular target: T1, Cx43 CT (amino acids 255 to 382) (Rattus norvegicus, UniProt P08050); test: Surface plasmon resonance, Cx43 CT analyte; type: binding; settings: biotin-peptide immobilized on streptavidin chip; analyte 0.5 to 15 μM
T1 construct: Cx43-CT: amino acids 255 to 382; GST (N, cleaved yes); made in house; host or cells: E. coli BL21
T1 sequence (P08050 255-382): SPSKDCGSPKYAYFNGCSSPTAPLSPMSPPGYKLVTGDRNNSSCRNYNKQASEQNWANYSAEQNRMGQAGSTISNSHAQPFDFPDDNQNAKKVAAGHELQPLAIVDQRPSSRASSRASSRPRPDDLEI
Method: (§1) Efficacy of the interaction of each alpha CT1 variant with Cx43 CT or Cx43 CT-KK/QQ was tested using surface plasmon resonance (SPR) as described previously 20. In brief, SPR experiments were performed using a Biacore T200 (GE Healthcare). Equal amounts (response units/RU) of biotin-alpha CT1 variants were immobilized on each flow cell of a streptavidin-coated sensor chip (Biacore Inc) using immobilization buffer (in mM: 10 HEPES, 1 EDTA, 100 NaCl, 0.005% Tween-20) at pH 7.4. Measurements with wild-type (wt) Cx43 CT and mutant Cx43 CT-KK/QQ analytes were done in running buffer (in mM: 10 HEPES, 100 NaCl, pH 7.4) at a flow rate of 30 μl/min. Binding of analytes were verified at different concentrations, in random order (injection volume 120 μl). Interacting proteins were then unbound by injection of […] regeneration buffer (50 mM NaOH and 1 M NaCl) at a flow rate of 10 μl/min. Background levels were obtained from a reference cell containing a biotin-control peptide in which the reversed sequence of the last 9 amino acids of Cx43 was fused to biotin-antennapedia. The RU values obtained with biotin-control peptide were subtracted from the RU values obtained with the different biotin-alphaCT1 variants (wild-type or mutant) to generate the different response curves.

Cx43 CT-KK/QQ = molecular target: T2, Cx43 CT-KK/QQ (Rattus norvegicus, UniProt P08050, K345Q/K346Q); test: Surface plasmon resonance, Cx43 CT-KK/QQ analyte; type: binding; settings: biotin-peptide immobilized on streptavidin chip
T2 construct: pGEX-6-P2 Cx43 CT amino acids 255-382; GST (N, cleaved yes); made in house; host or cells: E. coli BL21
T2 sequence (P08050 255-382 K345Q/K346Q): as the sequence (P08050 255-382) above, with K91Q, K92Q counted along it
Excerpt: Peptides were synthesized and quality checked for fidelity and purity using High Performance Liquid Chromatography and mass spectrometry (LifeTein, Hillsborough, NJ). Biotinylated peptides were designed for surface plasmon resonance experiments. Glutathione-S-Transferase (GST) fusion protein constructs composed of the Cx43-CT (pGEX-6-P2 Cx43 CT amino acids 255-382), ZO-1 PDZ1, PDZ2 and PDZ3 were isolated and purified from isopropyl-b-D-thiogalactoside (IPTG)-induced BL21 bacteria using standard procedures, described in references 13, 14, 20. The pGEX6p2-Cx43 CT plasmid was obtained from Prof. Paul L. Sorgen (University of Nebraska Medical Center, USA). Cx43 CT mutant (Cx43 CT-KK/QQ; amino acids Lys345 Lys346 to Gln 345 Gln 346) was developed by site-directed mutagenesis of the pGEX6p2-Cx43 CT plasmid (Agilent technologies, QuikChange II Site-Directed Mutagenesis Kit). The mutation was verified by sequencing. For surface plasmon resonance experiments, the GST was removed using PreScission protease, yielding Cx43 CT protein (wild-type or mutant).
as §1

Cx43 CT = molecular target: T3, Cx43 CT (Rattus norvegicus, UniProt P08050); test: Protein thermal shift assay, Cx43 CT; type: binding; settings: 500 μg/ml protein, 25-100 μM peptide
T3 construct: CT: amino acids 255 to 382) alone; GST (N); made in house; host or cells: E. coli BL21
T3 sequence (P08050 255-382): as the sequence (P08050 255-382) above
Method: (§2) Thermal stability of recombinant GST-PDZ2 or Cx43 CT in the presence or absence of peptides was determined in a 96-well format. Each assay well was composed of 500 μg/ml protein, 25-100 μM of each peptide in PBS buffer, pH7.4. All assays were performed independently six times. Samples were generally prepared in 96-well plates at final volumes of 20 μL. The fluorescent dye SYPRO Orange (5000× concentrate in DMSO, ThermoFisher, S6650) was added to a final concentration of 8X. Reactions were run on QuantStudio 6 Flex Real-Time PCR system (Applied Biosystems, part of Life Technologies Corporation, CA) according to the manufacturer's recommendations using a melt protocol in 0.05-degree/see increments from 25° C. to 95° C. The Reporter Dye was “ROX” and quencher Dye and passive reference were selected as “None” for the melt curve according to manufacturer's instructions. The data were analyzed using Protein Thermal Shift™ Software v1.3 package (Applied Biosystems, CA).

ZO-1 PDZ2 = molecular target: T4, ZO-1 PDZ2 (Homo sapiens, UniProt Q07157); test: Protein thermal shift assay, ZO-1 PDZ2; type: binding; settings: 500 μg/ml protein, 25-100 μM peptide
T4 construct: the second of the three PDZ (PDZ2) domains of ZO-1; made in house; host or cells: E. coli BL21
T4 sequence (Q07157 186-264 limits assumed): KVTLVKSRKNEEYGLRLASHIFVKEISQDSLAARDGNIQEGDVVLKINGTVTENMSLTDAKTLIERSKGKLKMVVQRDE
Method: as §2

[2] = molecular target: T5, PKC-ε phosphorylation of Cx43-CT substrate at Ser368 (Rattus norvegicus, UniProt P08050); test: PKC-ε Cx43 CT S368 phosphorylation assay; type: biochemical; settings: peptides at 20 μM
T5 construct: substrate (Cx43-CT: amino acids 255 to 382); GST (N); made in house; host or cells: E. coli BL21 (Cx43 CT); PKC-ε purchased (Life, 37717L)
T5 sequence (P08050 255-382): as the sequence (P08050 255-382) above
Method: PKC assay conditions were used to evaluate the PKC-ε phosphorylation of Cx43-CT substrate at Ser368 as we have described previously, with modifications 11. 400 ng/ml […] (Life, 37717L, Carlsbad, CA) was pre-diluted in enzyme dilution buffer (10 mM HEPES pH7.4, 0.01% CHAPS and 5 mM DTT) and assayed in 20 mM HEPES pH7.4, 10 mM/L MgCl2, 0.1 mM EGTA, 1× lipid mix (200 μg/ml phosphatidylserine (Avanti Polar Lipids 840032C),^20 μg/ml Diacylglycerol (Avanti Polar Lipids), 1 mM HEPES pH7.4, 0.03% CHAPS), 500 µM ATP (Sigma, A6419) and 14 μg/ml Cx43-CT substrate. Kinase assay buffer was supplemented with peptides to produce final concentrations of the reaction constituents, as indicated in figure legends. The mixture was incubated at 37° C. for 12 minutes and quenched by addition of LDS sample loading buffer (Bio Rad, 1610791). “XT sample buffer” is what was shown on the product label, whereas the component is similar as regular LDS buffer, containing about 5-10% lithium dodecyl sulphate. The reaction was Western blotted for pS368 Cx43 using the Phospho-Connexin43 (Ser368) antibody from Cell Signaling. Proteins were eluted off by stripping buffer (Millipore 2504) and re-probed for total Cx43 using the Sigma anti-rabbit antibody. Percent phosphorylation (% P) was quantified using Equation 1 and normalized with control group (PKC+, no peptide added).

[3] = test system: Neonatal cardiac fibroblasts (NHFs); test: Collagen synthesis by neonatal cardiac fibroblasts, Western blotting; type: cell-based, rat
Excerpt: Isolation and treatment of Neonatal Cardiac Fibroblasts with Cx43 based peptides (peptides used included ACT1, JM1, JM2, Antennapedia [ANT], reverse ACT1 [Rev], poly Arginine [poly r]). Said peptides with and without internalization vectors can be loaded into the provided EVs and can elicit results similar to those observed for naked peptide as follows. Neonatal cardiac fibroblasts (NHFs) were isolated from 3-4 day old rat hearts by collagenase digestion (100 U/mL) and differential attachment as previously described (Borg et ah, 1984). All cells were maintained in Dulbecco's Modified Eagle Medium (DMEM) supplemented with 10% Fetal Bovine Serum and 100 U/mL penicillin G and 100 μg/mL streptomycin and used prior to passage four. For experiments, 40,000 NHFs were plated into the wells of a 24-well tissue culture plate and grown for 24-48 hours. On the day of treatment, media was removed from each well and replaced with fresh media containing 50 μg/mL L-ascorbic acid-2-phosphate; Sigma Chemical Co., St. Louis, MO). The appropriate volume of each peptide (resuspended in sterile, deionized 18 MQ resistivity water) was added to achieve the desired final concentration (30, 90, 180 µM peptide concentrations were tested). Culture plates were incubated overnight in a 37° C. incubator with 5% C02.
Protein Isolation and Examination of Collagen Synthesis by Western Blotting. Conditioned culture media was collected from each well and stored at −20° C. for analysis of soluble collagen. Cellular protein, including insoluble collagen and collagen still within the NHFs, were isolated by adding 100-200 μL, of cell lysis buffer (0.01 M Tris, pH 7.4, 0.001 M Sodium Orthovanadate, 1% sodium dodecylsulfate [SDS]) to each well and incubating 10 minutes at room temperature. Prior to addition, cell lysis buffer was warmed to facilitate solubilization of SDS and 100 u L of Halt protease inhibitor (Pierce Biotechnology, Rockford, IL) was added per 10 mL buffer to be used. After incubation, the well bottoms were scraped and liquid transferred to a microcentrifuge tube for storage at −20° C. Protein concentrations of cell lysates were determined using a Micro BCA assay (Pierce). SDS-PAGE samples were prepared by combining either 10 μg of cell lysate or 30 μL of conditioned media with XT loading buffer (BioRad, Hercules, CA), dithiothreitol and boiled for five minutes. Samples were loaded onto 3-8% Tris-Acetate Criterion X T gels (BioRad, Hercules, CA) and proteins separated at 140V. After electrophoresis, proteins were transferred onto […] nitrocellulose membranes (BioRad) overnight at room temperature (Transfer buffer: 25 mM Tris, 192 mM Glycine, 20% Methanol, 0.01% SDS). The presence of collagen was determined by probing the membranes with a rabbit anti-mouse collagen type I antibody (MD Biosciences) at 1:20,000 dilution in blocking buffer (5% milk in Tris-buffered saline) followed by a goat anti-rabbit IgG horseradish peroxidase conjugated antibody at 1:100,000 (Southern Biotech Associates) and detection with Pierce SuperSignal Femto West detection reagent (Pierce). To assess the activity of JM1 and JM2 peptides with respect to collagen production and their potential in mediating wound healing, cardiac fibroblasts were treated with these two peptides and their effectiveness compared to that for the previous described Cx43 peptide ACT1. NHFs were treated with various concentrations of JM1, JM2, ACT1, and ANT (Antennapedia) peptides, vehicle (water) or left untreated and the production of collagen both in the culture media and cell-associated collagen assessed by western blotting. […] To evaluate the impact of the poly-Arginine (poly-r)N-terminal sequence on JM1 and Jm2 activity, NHF cells were treated with a poly-r peptide.

Cx43-HeLa = type: cell-based
Method: The first tests of JM1 and JM2 were performed and the experiments centered on the basic cell biology of the peptides.

Cx43-Hela cells = test: Cx43 and ZO-1 immunofluorescent labeling; type: cell-based; settings: 10 μM for 2, 4, 24, or 48 hours
Method: Given that the 10UM concentration of peptide was not toxic to cells, the inventors treated Cx43-Hela cells with 10 μM JM1 or JM2 for 2, 4, 24, or 48 hours followed by fixation and immunofluorescent labeling of Cx43 and ZO-1. Said peptides can be loaded into the provided EVs and can elicit results similar to those observed for naked peptide as follows. […] However, the most striking effects were on ZO-1 organization. In control cells ZO-1 localized to cell borders, often at sites of small, finger-like projections between the cells. Cytoplasmic ZO-1 was also notable. In JM-treated cells a strong contrast in the ratio of cell border to cytoplasmic ZO-1 was found, with relative levels at cell borders being increased over controls. […] There was also a noticeable increase in the number of cells per area of field, supporting the earlier observation that JM2 treated cells appeared to proliferate and survive at an increased rate.

Nc1ncnc2c1ncn2[C@@H]1O[C@H](COP(=O)(O)OP(=O)(O)OP(=O)(O)O)[C@@H](O)[C@H]1O [ATP]
inflammatory infiltrate (silicon wafer implants): profound increase in inflammatory infiltrate; also recorded: more inflammatory infiltrate than the surgery alone

RQPKIWFPNRRKPWKK RPRPAALEI (RQPKIWFPNRRKPWKKRPRPAALEI) [M2 AALEI]
SPR binding to Cx43 CT [1]: abrogated peptide interaction with Cx43 CT; also recorded: limited ability to bind Cx43 CT
SPR binding to Cx43 CT-KK/QQ (Cx43 CT-KK/QQ): unable mediate interactions
Cx43 CT melt temperature (Tm) (Cx43 CT): no propensity to alter Cx43 CT thermal stability
PDZ2 melt temperature (Tm) (ZO-1 PDZ2): did not alter the melt temperature of PDZ2
Cx43 S368 phosphorylation [2]: neither M1 AALAI (SEQ ID NO: 134), M2 AALEI (SEQ ID NO: 135) nor M3 DDLAI (SEQ ID NO: 136) increased Cx43 S368 phosphorylation

VFFKGVKDRV [JM1]
mature type I collagen in conditioned media ([3]; 180 μM): no mature type I collagen was detected
mature type I collagen in conditioned media ([3]; 30, 90, 180 µM): dose-dependent decrease in the production of mature, type I collagen
collagen produced versus poly-r peptide ([3]; about 90 μM): less than half of that produced by cells treated with the poly-r peptide
mature type I collagen in cell lysate ([3]; versus ACT1 peptide): more profound reduction in the amount of mature type I collagen
toxicity (cell death) (Cx43-HeLa): no obvious toxicity
Cx43 and ZO-1 localization (Cx43-Hela cells): greater cytoplasmic Cx43 was observed; also recorded: ZO-1 cell border labeling was enhanced
tissue reaction zone (silicon wafer implants): substantially narrower tissue reaction zone

apyrase
inflammatory infiltrate (silicon wafer implants): significantly reduced the inflammatory infiltrate
